Source: ChEMBL document CHEMBL4418480, “Methods and compositions for modulating rho-mediated gene transcription” (2012)
Active and inactive are the calls of the source. The rule behind the calls is not given here.

How the values were obtained:
PC-3 [1] = assay: Cytotoxicity against human PC3 cells assessed as inhibition of cell cell viability at 100 uM incubated for 19 hrs by WST1 based assay relative to control; type: functional; conditions: for inhibition at 100 µM: PC-3, 19 h
[2] = Inhibition of nonspecific gene transcription in human PC3 cells transfected with Galpha12QL activator at 100 uM incubated for 19 hrs by PRL-TK luciferase based dual luciferase reporter gene assay; type: cell-based, PC-3
Homo sapiens [3] = species on record: Homo sapiens; assay: Inhibition of rho-mediated gene transcription in human PC3 cells transfected with Galpha12QL activator at 100 uM incubated for 19 hrs by SRE.L-firefly luciferase based dual luciferase reporter gene assay relative to control; type: cell-based
[4] = Inhibition of rho-mediated gene transcription in human PC3 cells transfected with Galpha12QL activator incubated for 19 hrs by SRE.L-firefly luciferase based dual luciferase reporter gene assay; type: cell-based; conditions: PC-3, 19 h
Homo sapiens [5] = species on record: Homo sapiens; assay: Inhibition of rho-mediated gene transcription in human PC3 cells transfected with Galpha12QL activator at 10 uM incubated for 19 hrs by SRE.L-firefly luciferase based dual luciferase reporter gene assay relative to control; type: cell-based
[6] = Inhibition of nonspecific gene transcription in human PC3 cells transfected with Galpha12QL activator at 10 uM incubated for 19 hrs by PRL-TK luciferase based dual luciferase reporter gene assay; type: cell-based, PC-3
PC-3 [7] = assay: Cytotoxicity against human PC3 cells assessed as inhibition of cell cell viability at 10 uM incubated for 19 hrs by WST1 based assay relative to control; type: functional; conditions: for inhibition at 10 µM: PC-3, 19 h
SK-OV-3 = assay: Antiinvasive activity against human SKOV3 cells assessed as inhibition of LPA-stimulated cell invasion at 100 ng/ml by matrigel based assay; type: functional
WI-38 = assay: Antiproliferative activity against human WI38 cells assessed as inhibition of LPA-stimulated cell proliferation at 0.3 mmol/L and measured on day 8 by WST1 based assay; conditions: wi-38, 300 µM
PC-3 [8] = assay: Antiinvasive activity against human PC3 cells assessed as inhibition of LPA-stimulated cell invasion at 3 umol/L by matrigel based assay; type: functional
Homo sapiens [9] = species on record: Homo sapiens; assay: Antiproliferative activity against human A375M2 cells assessed as inhibition of LPA-stimulated cell proliferation at 0.3 mmol/L and measured on day 8 by WST1 based assay; type: functional
SK-MEL-147 = assay: Antiproliferative activity against human SK-MEL-147 cells assessed as inhibition of LPA-stimulated cell proliferation at 0.3 mmol/L and measured on day 8 by WST1 based assay; type: functional
SK-MEL-28 = assay: Antiproliferative activity against human SK-MEL-28 cells assessed as inhibition of LPA-stimulated cell proliferation at 0.3 mmol/L and measured on day 8 by WST1 based assay; type: functional
PC-3 [10] = assay: Antiproliferative activity against human PC3 cells assessed as inhibition of LPA-stimulated cell proliferation incubated for 27 hrs by BrdUrd incorporation assay; type: functional, cell-based
A-375 = assay: Antiproliferative activity against human A375 cells assessed as inhibition of LPA-stimulated cell proliferation at 0.3 mmol/L and measured on day 8 by WST1 based assay; type: functional

| Compound | inhibition at 19 h, 100 µM [2] [%] | IC50 [4] [µM] | inhibition at 19 h, 10 µM [6] [%] | inhibition (Homo sapiens [3]) | inhibition (Homo sapiens [5]) | also measured |
| --- | --- | --- | --- | --- | --- | --- |
| O=C(CCNC(=O)c1cc(C(F)(F)F)cc(C(F)(F)F)c1)Nc1ccc(Cl)cc1 | 15 to 22 | 25 to 38 |  | 64 to 66% | 38 to 44% | inhibition at 100 µM (PC-3 [1]): 6 to 10% |
| O=C(Nc1ccccc1C(=O)Nc1ccc(Cl)cc1)c1cc(C(F)(F)F)cc(C(F)(F)F)c1 |  |  | 0 |  |  |  |
| CC(=O)O[C@H]1C(=O)[C@@]2(C)[C@H]([C@H](OC(=O)c3ccccc3)[C@]3(O)C[C@H](OC(=O)[C@H](O)[C@@H](NC(=O)c4ccccc4)c4ccccc4)C(C)=C1C3(C)C)[C@]1(OC(C)=O)CO[C@@H]1C[C@@H]2O |  |  |  |  |  | inhibition (SK-OV-3): Active |
| O=C(CONC(=O)c1ccccc1)Nc1ccc(Cl)cc1 |  | > 100 |  | inactive | inactive | inhibition (PC-3 [7]): inactive; inhibition (PC-3 [1]): inactive |
| O=C(CC1CCCCN1C(=O)c1cc(C(F)(F)F)cc(C(F)(F)F)c1)Nc1ccc(Cl)cc1 (configuration not stated) |  |  | 0 |  |  |  |
| O=C(CONC(=O)c1cc(C(F)(F)F)cc(C(F)(F)F)c1)Nc1ccccc1 | 59 | 36 | 33 | 65% | 13% |  |

Second part, led by results:

| inhibition at 19 h, 100 µM [2] [%] | IC50 [4] [µM] | inhibition at 19 h, 10 µM [6] [%] | Compound | inhibition (Homo sapiens [3]) | inhibition (Homo sapiens [5]) | also measured |
| --- | --- | --- | --- | --- | --- | --- |
| 0 | 29 | 6 | O=C(CONC(=O)c1ccc(C(F)(F)F)cc1)Nc1ccc(Cl)cc1 | 91% | 26% |  |
| 10 | > 1000 | 0 | CN(CCNC(=O)c1cc(C(F)(F)F)cc(C(F)(F)F)c1)C(=O)c1ccc(Cl)cc1 | 25% | 20% | inhibition at 10 µM (PC-3 [7]): 0%; inhibition at 100 µM (PC-3 [1]): 0% |
|  |  | 48 | CC(ONC(=O)c1cc(C(F)(F)F)cc(C(F)(F)F)c1)C(=O)Nc1ccc(Cl)cc1 (configuration not stated) |  | 74% | Activity (WI-38): Non-Toxic; inhibition at 10 µM (PC-3 [7]): 44%; inhibition (PC-3 [8]): Active; inhibition (Homo sapiens [9]): Active; inhibition (SK-MEL-147): Active; inhibition (SK-MEL-28): Active; inhibition (PC-3 [10]): Active; inhibition (A-375): Active |
| 19 | 27 | 5 | O=C(CONC(=O)c1cccc(C(F)(F)F)c1)Nc1ccc(Cl)cc1 | 86% | 25% |  |
| 10 | > 100 | 0 | O=C(CCCCNC(=O)c1cc(C(F)(F)F)cc(C(F)(F)F)c1)Nc1ccc(Cl)cc1 | 12% | 0% | inhibition at 10 µM (PC-3 [7]): 0%; inhibition at 100 µM (PC-3 [1]): 0% |
